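Compound exposure: 48 hours, 5 concentrations, 96-well plates. The concentration for full growth arrest is given as TGI.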
Tests used:
Experiment in all cases: growth of human tumour cells (NCI), 48 h
SR leukemia = test system: SR leukemia
NCI-H522 lung = test system: NCI-H522 lung
TK-10 renal = test system: TK-10 renal
LOX IMVI melanoma = test system: LOX IMVI melanoma
SK-MEL-5 melanoma = test system: SK-MEL-5 melanoma
IGROV1 ovarian = test system: IGROV1 ovarian
NCI/ADR-RES ovarian = test system: NCI/ADR-RES ovarian
SK-MEL-2 melanoma = test system: SK-MEL-2 melanoma
HCC-2998 colon = test system: HCC-2998 colon
M14 melanoma = test system: M14 melanoma
HCT-15 colon = test system: HCT-15 colon
MDA-MB-435 = test system: MDA-MB-435
KM12 colon = test system: KM12 colon
OVCAR-4 ovarian = test system: OVCAR-4 ovarian
HT29 colon = test system: HT29 colon
SW-620 colon = test system: SW-620 colon
SF-539 CNS = test system: SF-539 CNS
U251 CNS = test system: U251 CNS
SNB-19 CNS = test system: SNB-19 CNS
RPMI-8226 leukemia = test system: RPMI-8226 leukemia
SF-268 CNS = test system: SF-268 CNS
HL-60(TB) leukemia = test system: HL-60(TB) leukemia
SK-OV-3 ovarian = test system: SK-OV-3 ovarian
786-0 renal = test system: 786-0 renal
SK-MEL-28 melanoma = test system: SK-MEL-28 melanoma
CAKI-1 renal = test system: CAKI-1 renal
NCI-H23 lung = test system: NCI-H23 lung
DU-145 prostate = test system: DU-145 prostate
OVCAR-3 ovarian = test system: OVCAR-3 ovarian
HOP-62 NSCLC = test system: HOP-62 NSCLC
PC-3 prostate = test system: PC-3 prostate
OVCAR-5 ovarian = test system: OVCAR-5 ovarian
A549 NSCLC = test system: A549 NSCLC
MDA-MB-231 breast = test system: MDA-MB-231 breast
MCF7 breast = test system: MCF7 breast
HS 578T breast = test system: HS 578T breast
HCT-116 colon = test system: HCT-116 colon
MALME-3M melanoma = test system: MALME-3M melanoma
NCI-H226 lung = test system: NCI-H226 lung
UACC-257 melanoma = test system: UACC-257 melanoma
HOP-92 NSCLC = test system: HOP-92 NSCLC
RXF 393 renal = test system: RXF 393 renal
OVCAR-8 ovarian = test system: OVCAR-8 ovarian
ACHN renal = test system: ACHN renal
BT-549 breast = test system: BT-549 breast
UO-31 renal = test system: UO-31 renal
A498 renal = test system: A498 renal
SN12C renal = test system: SN12C renal
COLO 205 colon = test system: COLO 205 colon
T-47D breast = test system: T-47D breast
NCI-H460 lung = test system: NCI-H460 lung
UACC-62 melanoma = test system: UACC-62 melanoma
SNB-75 CNS = test system: SNB-75 CNS
MDA-N = test system: MDA-N
MOLT-4 leukemia = test system: MOLT-4 leukemia
K-562 leukemia = test system: K-562 leukemia
CCRF-CEM leukemia = test system: CCRF-CEM leukemia
EKVX NSCLC = test system: EKVX NSCLC
SF-295 CNS = test system: SF-295 CNS

Measured: TGI

c1ccc2c(c1)CN1CCCC1CN2 (configuration not stated)
> 100 µM: SR leukemia | NCI-H522 lung | TK-10 renal | LOX IMVI melanoma | SK-MEL-5 melanoma | IGROV1 ovarian | NCI/ADR-RES ovarian | SK-MEL-2 melanoma | HCC-2998 colon | M14 melanoma | HCT-15 colon | MDA-MB-435 | KM12 colon | OVCAR-4 ovarian | HT29 colon | SW-620 colon | SF-539 CNS | U251 CNS | SNB-19 CNS | RPMI-8226 leukemia | SF-268 CNS | HL-60(TB) leukemia | SK-OV-3 ovarian | 786-0 renal | SK-MEL-28 melanoma | CAKI-1 renal | NCI-H23 lung | DU-145 prostate | OVCAR-3 ovarian | HOP-62 NSCLC | PC-3 prostate | OVCAR-5 ovarian | A549 NSCLC | MDA-MB-231 breast | MCF7 breast | HS 578T breast | HCT-116 colon | MALME-3M melanoma | NCI-H226 lung | UACC-257 melanoma | HOP-92 NSCLC | RXF 393 renal | OVCAR-8 ovarian | ACHN renal | BT-549 breast | UO-31 renal | A498 renal | SN12C renal | COLO 205 colon | T-47D breast | NCI-H460 lung | UACC-62 melanoma | SNB-75 CNS | MDA-N | MOLT-4 leukemia | K-562 leukemia | CCRF-CEM leukemia | EKVX NSCLC | SF-295 CNS

CN(C)CCCNc1c2c(nc3ccc(Cl)cc13)CCCC2
27.8 µM: SK-MEL-5 melanoma | HOP-92 NSCLC
43.8 µM: OVCAR-4 ovarian
43.7 µM: BT-549 breast | CCRF-CEM leukemia
32.3 µM: MDA-MB-435
28 µM: UO-31 renal
39.6 µM: A549 NSCLC
49.4 µM: SNB-19 CNS
31.2 µM: MDA-MB-231 breast
38.3 µM: EKVX NSCLC
34.9 µM: OVCAR-3 ovarian
34.5 µM: SK-MEL-2 melanoma
32.6 µM: A498 renal
40.1 µM: HL-60(TB) leukemia
29.7 µM: MALME-3M melanoma | SF-295 CNS
26.9 µM: MDA-N
23.9 µM: NCI-H460 lung
40.6 µM: HS 578T breast
28.1 µM: M14 melanoma
66.2 µM: SK-OV-3 ovarian
28.9 µM: SN12C renal
32.9 µM: OVCAR-8 ovarian
28.7 µM: RPMI-8226 leukemia
26.8 µM: NCI-H522 lung
45.5 µM: ACHN renal
30.5 µM: HOP-62 NSCLC
> 73 µM: T-47D breast
23.1 µM: 786-0 renal
20.8 µM: MOLT-4 leukemia
49 µM: OVCAR-5 ovarian
65.4 µM: CAKI-1 renal
30.1 µM: U251 CNS
23.2 µM: HT29 colon
30.8 µM: KM12 colon | SNB-75 CNS
32.1 µM: UACC-62 melanoma
30.7 µM: UACC-257 melanoma
49.7 µM: NCI-H226 lung
30.6 µM: NCI-H23 lung
36.4 µM: TK-10 renal
28.6 µM: SF-268 CNS | RXF 393 renal
32.8 µM: PC-3 prostate
32.4 µM: HCT-15 colon
27.3 µM: LOX IMVI melanoma
35.3 µM: SK-MEL-28 melanoma
37.5 µM: IGROV1 ovarian
25.5 µM: MCF7 breast
12 µM: K-562 leukemia
16.3 µM: HCC-2998 colon
6.88 µM: SR leukemia
28.5 µM: SF-539 CNS
31.8 µM: SW-620 colon
31.9 µM: DU-145 prostate
45 µM: NCI/ADR-RES ovarian
21.5 µM: HCT-116 colon | COLO 205 colon

CCOC(=O)NN(C(=O)OCC)C(=C(c1ccccc1)N1CCOCC1)N(NC(=O)OCC)C(=O)OCC
> 100 µM: SR leukemia | NCI-H522 lung | TK-10 renal | LOX IMVI melanoma | SK-MEL-5 melanoma | IGROV1 ovarian | NCI/ADR-RES ovarian | SK-MEL-2 melanoma | HCC-2998 colon | M14 melanoma | HCT-15 colon | MDA-MB-435 | KM12 colon | OVCAR-4 ovarian | HT29 colon | SW-620 colon | SF-539 CNS | U251 CNS | SNB-19 CNS | RPMI-8226 leukemia | SF-268 CNS | HL-60(TB) leukemia | SK-OV-3 ovarian | 786-0 renal | SK-MEL-28 melanoma | CAKI-1 renal | NCI-H23 lung | DU-145 prostate | OVCAR-3 ovarian | HOP-62 NSCLC | PC-3 prostate | OVCAR-5 ovarian | A549 NSCLC | MDA-MB-231 breast | MCF7 breast | HS 578T breast | HCT-116 colon | MALME-3M melanoma | NCI-H226 lung | UACC-257 melanoma | HOP-92 NSCLC | RXF 393 renal | OVCAR-8 ovarian | ACHN renal | BT-549 breast | UO-31 renal | A498 renal | SN12C renal | COLO 205 colon | T-47D breast | NCI-H460 lung | UACC-62 melanoma | SNB-75 CNS | MDA-N | MOLT-4 leukemia | K-562 leukemia | CCRF-CEM leukemia | EKVX NSCLC | SF-295 CNS

Reference: PubChem BioAssay (NCI)
